Test results as given in article PMC7618597, “Dual Nurr1/RXR agonism of valerenic acid and synthetic mimetics enables dimer-selective Nurr1 modulation” (ACS medicinal chemistry letters, 2025).

What was measured:
[1] = molecular target: T1, Nurr1 homodimer (Homo sapiens, UniProt P43354); experiment: Nurr1 LBD homodimerization assay (HTRF); assay type: biochemical; settings: 30 μM, Tb3+-cryptate and sGFP labeled Nurr1 LBD
T1 construct: Tb^3+-cryptate labeled and sGFP-labeled Nurr1 LBD proteins; FRET acceptor consisted of sGFP-Nurr1 LBD
T1 sequence (P43354 360-595 limits assumed): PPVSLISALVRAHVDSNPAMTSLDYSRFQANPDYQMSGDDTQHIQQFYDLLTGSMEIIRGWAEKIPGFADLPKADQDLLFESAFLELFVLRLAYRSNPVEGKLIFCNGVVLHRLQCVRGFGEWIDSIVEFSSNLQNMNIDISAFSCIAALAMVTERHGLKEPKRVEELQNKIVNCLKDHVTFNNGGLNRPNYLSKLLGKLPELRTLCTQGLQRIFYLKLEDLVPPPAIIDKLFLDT
Description: (§1) To determine the molecular response of the Nurr1:RXR heterodimer on dual agonist binding, we employed homogenous time-resolved fluorescence resonance energy transfer (HTRF) based assays with labeled Nurr1 and RXR LBD proteins. Tb^3+-cryptate as streptavidin conjugate served as FRET donor and was coupled to biotinylated proteins. sGFP fusion proteins of the receptors of interest were used as FRET acceptors. Ligand effects on dimer formation were determined by titrating the sGFP-labeled dimer partner with a fixed concentration of the Tb^3+-labeled counterpart. […] The same effect was also observable for the natural product 1 (Figure S3).
(§2) Nurr1 dimerization assays (HTRF). Modulation of Nurr1 LBD homodimerization and heterodimerization of the LDBs of Nurr1 and RXRα was investigated by HTRF as reported previously4. Nurr1 LBD or RXRα LBD proteins labeled with sGFP were titrated against a fixed concentration of Tb3+-cryptate as streptavidin conjugate (Tb-SA) (610SATLF, Revvity) coupled to biotinylated Nurr1 LBD protein in the presence of test compounds at 30 µM or absence of compound as a negative control (apo). Assay solutions were prepared in buffer containing 25 mM HEPES pH 7.5, 150 mM KF, 5% (m/v) glycerol, 5 mM DTT, 0.1% (m/v) CHAPS and 1%
(§3) DMSO. The FRET donor complex was formed from biotinylated Nurr1 LBD (final concentration 0.188 nM) and Tb-SA (0.375 nM) and was kept constant. For the homodimerization assay, the FRET acceptor consisted of sGFP-Nurr1 LBD, which was titrated from 0.5 µM, while free sGFP was added to keep the total GFP content stable at 0.5 µM. […] Samples were equilibrated at room temperature for 2 h and fluorescence intensities (FI) after excitation at 340 nm were recorded at 520 nm for sGFP acceptor fluorescence and at 620 for Tb-SA donor fluorescence on a SPARK plate reader (Tecan Group Ltd.). […]
(§4) Evaluation of Nurr1-regulated gene expression. […] RNA concentration and purity were assessed using a NanoDrop One UV-vis spectrophotometer (Thermo Fisher Scientific) at 260/280 nm. […]

[2] = molecular target: Nurr1:RXR heterodimer (Homo sapiens, UniProt P19793+P43354); experiment: Nurr1 LBD:RXRα LBD heterodimerization assay (HTRF); assay type: biochemical; settings: 30 μM, Tb3+-cryptate Nurr1 LBD and sGFP-RXRα LBD
Nurr1:RXR heterodimer, sequence (P43354 360-595 limits assumed): as above
Nurr1:RXR heterodimer, sequence (P19793 227-458 limits assumed): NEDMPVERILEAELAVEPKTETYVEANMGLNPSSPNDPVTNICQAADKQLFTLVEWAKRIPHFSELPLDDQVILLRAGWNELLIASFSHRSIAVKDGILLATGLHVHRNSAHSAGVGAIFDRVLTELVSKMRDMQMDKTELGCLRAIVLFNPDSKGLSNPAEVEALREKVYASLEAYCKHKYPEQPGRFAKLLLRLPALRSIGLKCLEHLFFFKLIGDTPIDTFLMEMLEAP
Description: as §1, §2, §3, §4

[3] = Chemical stability; assay type: physicochemical; settings: compared to 2

Row | Structure (SMILES) | Nurr1 homodimer formation [1] | Nurr1:RXR heterodimer formation [2] | chemical stability [3]
1 | Cc1c2c(n(-c3ccc(CC(=O)O)cc3)c1C)CCC(F)(F)C2 [compound 2] | markedly diminished | left the dimer intact | 
2 | Cc1c(C)n(-c2ccc(CC(=O)O)cc2)c2ccc(F)cc12 [compound 3] | markedly diminished | left the dimer intact | improved chemical stability
